According to the NIST ThermoML archive (doi:10.1021/je8004134):
Several values for one entry are separate records, joined by “and”; a condition that tells them apart may be missing. Equal values may be shown once. ± gives the expanded uncertainty stated by the source.

Key:
[1] = 298.15 K, 101 kPa, Liquid; for speed of sound: Sing-around technique in a fixed-path interferometer; for mass density: Vibrating tube method
[2] = an = ratio of the nth substance listed, in mol/kg; settings: 298.15 K, 101 kPa, Liquid; for speed of sound: Sing-around technique in a fixed-path interferometer; for mass density: Vibrating tube method

CC(=O)N(C)C [N,N-dimethylethanamide]
[1]
Settings	mass density	speed of sound [m/s]
–	936.22 ± 0.25 kg/m3 [middle of 9 runs]	1455.4 ± 1.2

C[S+](C)[O-] [dimethyl sulfoxide]
[1]
Settings	mass density	speed of sound [m/s]
–	1095.19 ± 0.37 kg/m3 and 1095.2 ± 0.38 kg/m3 and 1095.19 ± 0.33 kg/m3	1484.1 ± 1.2

[Co+2].[O-][Cl+3]([O-])([O-])[O-].[O-][Cl+3]([O-])([O-])[O-] [cobalt(II) perchlorate] + C[S+](C)[O-]
[2]
Settings	mass density [kg/m3]	speed of sound [m/s]
a1 = 0.0215	1099.78 ± 0.37	1485.5 ± 1.2
a1 = 0.03236	1102.1 ± 0.38	1486.2 ± 1.2
a1 = 0.04309	1104.4 ± 0.38	1486.9 ± 1.2
a1 = 0.05528	1107.03 ± 0.38	1487.7 ± 1.2
a1 = 0.06505	1109.14 ± 0.38	1488.3 ± 1.2
a1 = 0.08726	1113.97 ± 0.38	1489.8 ± 1.2
a1 = 0.1069	1118.27 ± 0.38	1491 ± 1.2
a1 = 0.1285	1123.03 ± 0.38	1492.5 ± 1.2
a1 = 0.148	1127.38 ± 0.39	1493.7 ± 1.2
a1 = 0.1695	1132.18 ± 0.39	1495.2 ± 1.2
a1 = 0.1911	1137.05 ± 0.39	1496.6 ± 1.2

CC(=O)N(C)C [N,N-dimethylethanamide] + [Ni+2].[O-][Cl+3]([O-])([O-])[O-].[O-][Cl+3]([O-])([O-])[O-]
[2], a2 = 0
Settings	mass density [kg/m3]	speed of sound [m/s]
–	936.168 ± 0.32	1455.4 ± 1.2

C[S+](C)[O-] [dimethyl sulfoxide] + [Co+2].[O-][Cl+3]([O-])([O-])[O-].[O-][Cl+3]([O-])([O-])[O-]
[2], a2 = 0
Settings	mass density [kg/m3]	speed of sound [m/s]
–	1095.19 ± 0.37	1484.1 ± 1.2

[Cl][Mn][Cl] [manganese chloride] + C[S+](C)[O-]
[2]
Settings	mass density [kg/m3]	speed of sound [m/s]
a1 = 0.04414	1100.11 ± 0.33	1486.7 ± 1.2
a1 = 0.0572	1101.48 ± 0.33	1487.5 ± 1.2
a1 = 0.06981	1102.79 ± 0.33	1488.2 ± 1.2
a1 = 0.08942	1104.86 ± 0.33	1489.2 ± 1.2
a1 = 0.1135	1107.39 ± 0.33	1490.3 ± 1.2
a1 = 0.1386	1110.03 ± 0.33	1491.4 ± 1.2
a1 = 0.1616	1112.45 ± 0.33	1492.1 ± 1.2
a1 = 0.19	1115.49 ± 0.33	1493.2 ± 1.2
a1 = 0.213	1117.93 ± 0.33	1494.1 ± 1.2

CC(=O)N(C)C [N,N-dimethylethanamide] + [Cu+2].[O-][Cl+3]([O-])([O-])[O-].[O-][Cl+3]([O-])([O-])[O-]
[2], a2 = 0
Settings	mass density [kg/m3]	speed of sound [m/s]
–	936.11 ± 0.32	1455.4 ± 1.2

[Cl][Co][Cl] [cobalt chloride] + C[S+](C)[O-]
[2]
Settings	mass density [kg/m3]	speed of sound [m/s]
a1 = 0.04252	1099.76 ± 0.33	1485.1 ± 1.2
a1 = 0.06132	1101.77 ± 0.33	1485.6 ± 1.2
a1 = 0.08074	1103.85 ± 0.33	1486.2 ± 1.2
a1 = 0.1018	1106.1 ± 0.33	1486.7 ± 1.2
a1 = 0.122	1108.29 ± 0.33	1487.4 ± 1.2
a1 = 0.1423	1110.49 ± 0.33	1488.2 ± 1.2
a1 = 0.1621	1112.63 ± 0.33	1488.8 ± 1.2
a1 = 0.1818	1114.77 ± 0.33	1489.5 ± 1.2
a1 = 0.202	1116.97 ± 0.33	1490 ± 1.2

C[S+](C)[O-] [dimethyl sulfoxide] + [Cl-].[Cl-].[Zn+2]
[2], a2 = 0
Settings	mass density [kg/m3]	speed of sound [m/s]
–	1095.2 ± 0.32	1484.1 ± 1.2

CC(=O)N(C)C [N,N-dimethylethanamide] + [Cl][Ni][Cl]
[2], a2 = 0
Settings	mass density [kg/m3]	speed of sound [m/s]
–	936.23 ± 0.25	1455.4 ± 1.2

C[S+](C)[O-] [dimethyl sulfoxide] + [Cl][Ni][Cl]
[2], a2 = 0
Settings	mass density [kg/m3]	speed of sound [m/s]
–	1095.19 ± 0.34	1484.1 ± 1.2
